Assay results as given in US9028855B2, “Plant additives and uses thereof to modulate the synthesis of membrane glycerolipids in planta” (Commissariat a l'Energie Atomique et aux Energies …, priority 2009, dated 2015).
“Also recorded” adds a separate entry of the source.

What was measured:
wild type seedlings = test: Anthocyanins content (spectrophotometric); format: in vivo, A. thaliana; parameters: key to Antho: anthocyanin content as A530 - 2.2*A652; conditions: accumulation of anthocyanes; +P control 46, −P 1008
Experimental: Anthocyanins were extracted with propanol:HCl:H2O (81:1:18) for 5 min at room temperature and 3 min at 100° C. Samples are centrifuged for 10 min at 4° C. Supernatants were collected and absorption measured at 530 nm and […]. Anthocyanin content was calculated as A530-2.2A652 (Lange et al., 1971).

A. thaliana = test: Root growth (primary root) of plants on high phosphate medium supplied with compound; format: in vivo; conditions: expressed as a percentage having regard to a control; +P control 100, −P 20
Description: In response to phosphate starvation, the primary root growth is inhibited (Svistoonoff et al., 2007).

phopholipase Dz2 = test: PLDz::GUS, follow-up of the expression of the gene encoding phospholipase Dz2 (GUS staining); format: in vivo, A. thaliana; conditions: summary over PLDz::GUS and MGD3::GUS; specific = without impact on growth or PHT1;4
Experimental: pPLDZ2:GUS-GFP cell line is as described by Cruz-Ramirez et al. (Cruz-Ramirez et al., 2006), and expressed a GUS-GFP fusion under the control of the pldz2 promoter. […] Plants were examined for GUS activity by dipping the samples in a GUS staining solution (50 mM sodium phosphate buffer pH 7.0; 0.01% Triton X-100, 1 mM K3Fe(CN)6, 1 mM K4Fe(CN)6, 1 mg/ml 5-dromo-4-chloro-3-indolyl (3-D-GLUCURONIDE (X-Gluc A) and incubated at 37° C. over-night. After staining, the plants were fixed 2 hours in 50 mM sodium phosphate buffer pH 7.0; 1% glutaraldehyde; 4% formaldehyde. In response to phosphate starvation, the lipid metabolism is modified (Benning and Ohta, 2005). Plants preferentially synthesize sulpho- and galacto-lipids instead of phospholipids. Several enzymes are involved in this remobilisation.

Compound	Antho (wild type seedlings)	Root Growth (A. thaliana)	lipid metabolism: induction of PLDζ2 and/or MGD3 genes (in words) (phopholipase Dz2)
CC1(C)CC(=O)C(=CNc2ccccc2N)C(=O)C1 [#40]	65	85 % of control	specificity in lipids remodeling
COc1cccc(NC=C2C(=O)CCCC2=O)c1 [#41]	111	65 % of control	impact specifically the lipid metabolism inducing PLD[…]2 and MGD3; also recorded: specificity in lipids remodeling
O=C1CCCC(=O)C1=CNc1ccccc1 [#23]	42	100 % of control	specificity in lipids remodeling
CC(Nc1ccc(Br)cc1)=C1C(=O)CC(C)(C)CC1=O [#21]	146	93 % of control	impact specifically the lipid metabolism inducing PLD[…]2 and MGD3
CC1(C)CC(=O)C(=CNc2ccc3c(c2)OCO3)C(=O)C1 [#30]	189	65 % of control	impact specifically the lipid metabolism inducing PLD[…]2 and MGD3; also recorded: specificity in lipids remodeling
